Results: the supplement of paper PMC10307832

Experiments:
Assay in all cases: relative viability (nuclei count vs DMSO), 5 days (fraction); higher = more cells survive
MK-8033 + Pictilisib = compound: Cn1cc(-c2cnc3ccc4ccc(CS(=O)(=O)NCc5ccccn5)cc4c(=O)c3c2)cn1 [MK-8033] + CS(=O)(=O)N1CCN(Cc2cc3nc(-c4cccc5[nH]ncc45)nc(N4CCOCC4)c3s2)CC1 [Pictilisib] (partner 1 µM)
How it was run: (§1)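 Relative viability was taken as the ratio of nuclei in treated wells to nuclei in vehicle wells. Lung cancer cell lines in 1536-well plates received compounds by pin tool one day after seeding, either one drug alone or a fixed anchor-drug dose plus five library-drug doses (not always all listed) in √10 steps. Nuclei were counted on 4× images after 5 days of treatment, and values are medians of duplicate plates.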

RU-SKI 43 + Pictilisib = compound: CC[C@@H](C)CNCC(=O)N1CCC2=C([C@@H]1COC3=CC=CC(=C3)C)C=CS2 [RU-SKI 43] + CS(=O)(=O)N1CCN(Cc2cc3nc(-c4cccc5[nH]ncc45)nc(N4CCOCC4)c3s2)CC1 [Pictilisib] (partner 1 µM)
How it was run: as §1

Irinotecan + Pictilisib = compound: CCc1c2c(nc3ccc(OC(=O)N4CCC(N5CCCCC5)CC4)cc13)-c1cc3c(c(=O)n1C2)COC(=O)[C@]3(O)CC [Irinotecan] + CS(=O)(=O)N1CCN(Cc2cc3nc(-c4cccc5[nH]ncc45)nc(N4CCOCC4)c3s2)CC1 [Pictilisib] (partner 1 µM)
How it was run: as §1

RU-SKI 43 + Decitabine = compound: CC[C@@H](C)CNCC(=O)N1CCC2=C([C@@H]1COC3=CC=CC(=C3)C)C=CS2 [RU-SKI 43] + Nc1ncn([C@H]2C[C@H](O)[C@@H](CO)O2)c(=O)n1 [Decitabine] (partner 2 µM)
How it was run: as §1

| Cell Line | relative viability (MK-8033 + Pictilisib; first compound 0.02 µM) | relative viability (MK-8033 + Pictilisib; first compound 0.06325 µM) | relative viability (MK-8033 + Pictilisib; first compound 0.2 µM) | relative viability (MK-8033 + Pictilisib; first compound 0.6325 µM) | relative viability (MK-8033 + Pictilisib; first compound 2 µM) | relative viability (RU-SKI 43 + Pictilisib; first compound 0.1 µM) | relative viability (RU-SKI 43 + Pictilisib; first compound 0.3162 µM) | relative viability (RU-SKI 43 + Pictilisib; first compound 1 µM) | relative viability (RU-SKI 43 + Pictilisib; first compound 3.162 µM) | relative viability (RU-SKI 43 + Pictilisib; first compound 10 µM) | relative viability (Irinotecan + Pictilisib; first compound 0.6325 µM) | relative viability (Irinotecan + Pictilisib; first compound 2 µM) | relative viability (Irinotecan + Pictilisib; first compound 6.325 µM) | relative viability (Irinotecan + Pictilisib; first compound 20 µM) | relative viability (RU-SKI 43 + Decitabine; first compound 0.1 µM) | relative viability (RU-SKI 43 + Decitabine; first compound 0.3162 µM) | relative viability (RU-SKI 43 + Decitabine; first compound 1 µM) | relative viability (RU-SKI 43 + Decitabine; first compound 3.162 µM) | relative viability (RU-SKI 43 + Decitabine; first compound 10 µM) |
| --- | --- | --- | --- | --- | --- | --- | --- | --- | --- | --- | --- | --- | --- | --- | --- | --- | --- | --- | --- |
| NCI-H460 | 0.432 | 0.285 | 0.395 | 0.253 | 0.402 | 0.335 | 0.35 | 0.45 | 0.263 | 0.238 | 0.328 | 0.314 | 0.0912 | 0.0812 | 0.446 | 0.698 | 0.547 | 0.475 | 0.379 |
| NCI-H1793 | 0.32 |  | 0.286 | 0.307 | 0.258 | 0.396 | 0.411 | 0.479 | 0.318 | 0.31 |  | 0.259 | 0.189 | 0.29 | 0.461 | 0.421 | 0.458 | 0.486 | 0.443 |
| NCI-H596 | 0.352 | 0.319 | 0.379 | 0.384 | 0.397 | 0.379 | 0.43 | 0.42 | 0.414 | 0.57 | 0.395 | 0.394 | 0.382 | 0.484 | 1.08 | 1.04 | 0.91 | 1.16 | 1.07 |
| NCI-H2347 | 0.685 | 0.438 | 0.597 | 0.771 | 0.603 | 0.589 | 1.18 | 0.595 | 0.72 | 0.574 | 0.542 | 0.355 | 0.36 | 0.461 | 0.604 | 0.542 | 0.651 | 0.617 | 0.636 |
| 201T | 0.684 | 0.579 | 0.657 | 0.654 | 0.697 | 0.71 | 0.544 | 0.737 | 0.662 | 0.67 |  | 0.738 | 0.36 | 0.346 | 0.838 | 0.824 | 0.854 | 0.856 | 0.831 |
| NCI-H1650 | 0.601 | 0.469 | 0.646 | 0.527 | 0.544 | 0.561 | 0.579 | 0.616 | 0.739 | 0.382 | 0.254 | 0.657 | 0.295 | 0.108 | 0.315 | 0.36 | 0.338 | 0.509 | 0.34 |
| NCI-H1734 | 0.48 | 0.37 | 0.466 | 0.469 | 0.45 | 0.467 | 0.585 | 0.459 | 0.454 | 0.431 | 0.298 | 0.446 | 0.16 | 0.184 | 0.522 | 0.544 | 0.598 | 0.487 | 0.473 |
| SW 1573 | 0.55 | 0.414 | 0.462 | 0.463 | 0.42 | 0.519 | 0.544 | 0.581 | 0.648 | 0.455 | 0.435 | 0.37 | 0.173 | 0.155 | 0.483 | 0.594 | 0.51 | 0.532 | 0.433 |
| NCI-H1993 | 0.842 | 0.75 | 0.669 | 1 | 0.763 | 0.718 | 0.597 | 0.769 | 0.964 | 0.719 | 0.695 | 0.816 | 0.628 | 0.443 | 0.547 | 0.578 | 0.517 | 1.1 | 0.643 |
| NCI-H1755 | 0.413 | 0.399 | 0.368 | 0.405 | 0.481 | 0.384 | 0.524 | 0.532 | 0.48 | 0.367 | 0.249 | 0.382 | 0.224 | 0.361 | 0.714 | 0.798 | 0.758 | 0.715 | 0.755 |
| PC-14 | 0.652 | 0.514 | 0.738 | 0.545 | 0.623 | 0.644 | 0.716 | 0.756 | 0.646 | 0.462 | 0.652 | 0.425 | 0.257 | 0.194 | 0.248 | 0.219 | 0.225 | 0.218 | 0.203 |
| NCI-H358 | 0.306 | 0.344 | 0.331 | 0.395 | 0.227 | 0.291 | 0.315 | 0.332 | 0.336 | 0.286 | 0.265 | 0.387 | 0.282 | 0.171 | 0.199 | 0.184 | 0.248 | 0.217 | 0.19 |
| LK-2 | 0.629 | 0.452 | 0.535 | 0.621 | 0.606 | 0.596 | 0.809 | 0.686 |  | 0.532 | 0.558 | 0.58 | 0.34 | 0.294 | 0.317 | 0.279 | 0.408 | 0.298 | 0.246 |
| HCC-827 | 1.05 | 0.605 | 0.902 | 1.06 | 1.04 | 0.994 | 0.97 | 1.19 | 1.05 | 0.94 | 0.878 | 0.59 | 0.548 | 0.388 | 0.336 | 0.269 | 0.395 | 0.288 | 0.315 |
| LCLC-97TM1 | 0.187 | 0.148 | 0.199 | 0.215 | 0.19 | 0.191 |  | 0.213 | 0.162 | 0.188 | 0.12 | 0.219 | 0.167 | 0.279 | 0.24 | 0.239 | 0.243 | 0.237 | 0.246 |
